# According to BigSolDB 2.1:
smiles,measurement,setting,value
CSCCC(NC(C)=O)C(=O)O (racemic),solubility (mole fraction),"in 1,4-dioxane, 283.15 K",0.0227
same,solubility (mole fraction),"in 1,4-dioxane, 293.15 K",0.0428
same,solubility (mole fraction),"in 1,4-dioxane, 303.15 K",0.073
same,solubility (mole fraction),"in 1,4-dioxane, 313.15 K",0.108
same,solubility (mole fraction),"in 1,4-dioxane, 323.15 K",0.167
same,solubility (mole fraction),"in 2-butanone, 283.15 K",0.00843
same,solubility (mole fraction),"in 2-butanone, 293.15 K",0.0131
same,solubility (mole fraction),"in 2-butanone, 303.15 K",0.0207
same,solubility (mole fraction),"in 2-butanone, 313.15 K",0.0327
same,solubility (mole fraction),"in 2-butanone, 323.15 K",0.0568
same,solubility (mole fraction),"in acetone, 283.15 K",0.0138
same,solubility (mole fraction),"in acetone, 293.15 K",0.0215
same,solubility (mole fraction),"in acetone, 303.15 K",0.037
same,solubility (mole fraction),"in acetone, 313.15 K",0.0587
same,solubility (mole fraction),"in acetone, 323.15 K",0.0959
same,solubility (mole fraction),"in acetonitrile, 283.15 K",0.00292
same,solubility (mole fraction),"in acetonitrile, 293.15 K",0.00491
same,solubility (mole fraction),"in acetonitrile, 303.15 K",0.00877
same,solubility (mole fraction),"in acetonitrile, 313.15 K",0.016
same,solubility (mole fraction),"in acetonitrile, 323.15 K",0.0326
same,solubility (mole fraction),"in dichloromethane, 283.15 K",0.00024
same,solubility (mole fraction),"in dichloromethane, 293.15 K",0.00036
same,solubility (mole fraction),"in dichloromethane, 303.15 K",0.00052
same,solubility (mole fraction),"in dichloromethane, 313.15 K",0.0007
same,solubility (mole fraction),"in dichloromethane, 323.15 K",0.00093
same,solubility (mole fraction),"in ethanol, 283.15 K",0.0453
same,solubility (mole fraction),"in ethanol, 293.15 K",0.0626
same,solubility (mole fraction),"in ethanol, 303.15 K",0.0954
same,solubility (mole fraction),"in ethanol, 313.15 K",0.135
same,solubility (mole fraction),"in ethanol, 323.15 K",0.184
same,solubility (mole fraction),"in ethyl acetate, 283.15 K",0.00265
same,solubility (mole fraction),"in ethyl acetate, 293.15 K",0.00429
same,solubility (mole fraction),"in ethyl acetate, 303.15 K",0.00641
same,solubility (mole fraction),"in ethyl acetate, 313.15 K",0.00936
same,solubility (mole fraction),"in ethyl acetate, 323.15 K",0.0153
same,solubility (mole fraction),"in isobutanol, 283.15 K",0.0229
same,solubility (mole fraction),"in isobutanol, 293.15 K",0.0345
same,solubility (mole fraction),"in isobutanol, 303.15 K",0.0531
same,solubility (mole fraction),"in isobutanol, 313.15 K",0.0779
same,solubility (mole fraction),"in isobutanol, 323.15 K",0.114
same,solubility (mole fraction),"in isopropanol, 283.15 K",0.029
same,solubility (mole fraction),"in isopropanol, 293.15 K",0.0436
same,solubility (mole fraction),"in isopropanol, 303.15 K",0.066
same,solubility (mole fraction),"in isopropanol, 313.15 K",0.0984
same,solubility (mole fraction),"in isopropanol, 323.15 K",0.14
same,solubility (mole fraction),"in methanol, 283.15 K",0.0794
same,solubility (mole fraction),"in methanol, 293.15 K",0.105
same,solubility (mole fraction),"in methanol, 303.15 K",0.141
same,solubility (mole fraction),"in methanol, 313.15 K",0.187
same,solubility (mole fraction),"in methanol, 323.15 K",0.262
same,solubility (mole fraction),"in methyl acetate, 283.15 K",0.00352
same,solubility (mole fraction),"in methyl acetate, 293.15 K",0.00525
same,solubility (mole fraction),"in methyl acetate, 303.15 K",0.0084
same,solubility (mole fraction),"in methyl acetate, 313.15 K",0.0139
same,solubility (mole fraction),"in methyl acetate, 323.15 K",0.0243
same,solubility (mole fraction),"in n-butanol, 283.15 K",0.0247
same,solubility (mole fraction),"in n-butanol, 293.15 K",0.0393
same,solubility (mole fraction),"in n-butanol, 303.15 K",0.0591
same,solubility (mole fraction),"in n-butanol, 313.15 K",0.0888
same,solubility (mole fraction),"in n-butanol, 323.15 K",0.127
same,solubility (mole fraction),"in n-pentanol, 283.15 K",0.0215
same,solubility (mole fraction),"in n-pentanol, 293.15 K",0.0309
same,solubility (mole fraction),"in n-pentanol, 303.15 K",0.0465
same,solubility (mole fraction),"in n-pentanol, 313.15 K",0.0684
same,solubility (mole fraction),"in n-pentanol, 323.15 K",0.103
same,solubility (mole fraction),"in n-propanol, 283.15 K",0.031
same,solubility (mole fraction),"in n-propanol, 293.15 K",0.0511
same,solubility (mole fraction),"in n-propanol, 303.15 K",0.077
same,solubility (mole fraction),"in n-propanol, 313.15 K",0.115
same,solubility (mole fraction),"in n-propanol, 323.15 K",0.15
same,solubility (mole fraction),"in sec-butanol, 283.15 K",0.0236
same,solubility (mole fraction),"in sec-butanol, 293.15 K",0.0375
same,solubility (mole fraction),"in sec-butanol, 303.15 K",0.0568
same,solubility (mole fraction),"in sec-butanol, 313.15 K",0.0839
same,solubility (mole fraction),"in sec-butanol, 323.15 K",0.121
same,solubility (mole fraction),"in water, 283.15 K",0.00589
same,solubility (mole fraction),"in water, 293.15 K",0.008
same,solubility (mole fraction),"in water, 303.15 K",0.0136
same,solubility (mole fraction),"in water, 313.15 K",0.0231
same,solubility (mole fraction),"in water, 323.15 K",0.0543
